Assay [1] concerns the target T1, COS-7/AMY3 (human calcitonin receptor (CTR) and RAMP3) (Homo sapiens, UniProt O60896+P30988).
T1 construct: expressed in transfected cells; host or cells: COS-7
Briefly: Amylin Receptor cAMP Assay II. It is filed as cell-based. The following applies: values marked **: Amylin Receptor cAMP Assay II; COS-7/AMY3 cells, cAMP dynamic 2 kit, 30 min; read-out: Amylin Receptor cAMP Stimulation Activity: EC50. In a few lines:
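Agonist-induced cAMP was quantified by HTRF ratio at 665/615 nm and expressed as % of the window from vehicle to MAX control. Stimulation lasted 30 min at 37 °C in HBSS/20 mM HEPES/0.5 mM IBMX/0.1% casein, using stable human CTR+RAMP3 (AMY3) COS-7 cells at 2000 per well.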

Assay [2] deals with T2, human calcitonin receptor (CTR) (Homo sapiens, UniProt P30988).
T2 construct: expressed in transfected cells; host or cells: COS-7 (COS7-human CTR Clone #2)
T2 sequence (P30988 25-474): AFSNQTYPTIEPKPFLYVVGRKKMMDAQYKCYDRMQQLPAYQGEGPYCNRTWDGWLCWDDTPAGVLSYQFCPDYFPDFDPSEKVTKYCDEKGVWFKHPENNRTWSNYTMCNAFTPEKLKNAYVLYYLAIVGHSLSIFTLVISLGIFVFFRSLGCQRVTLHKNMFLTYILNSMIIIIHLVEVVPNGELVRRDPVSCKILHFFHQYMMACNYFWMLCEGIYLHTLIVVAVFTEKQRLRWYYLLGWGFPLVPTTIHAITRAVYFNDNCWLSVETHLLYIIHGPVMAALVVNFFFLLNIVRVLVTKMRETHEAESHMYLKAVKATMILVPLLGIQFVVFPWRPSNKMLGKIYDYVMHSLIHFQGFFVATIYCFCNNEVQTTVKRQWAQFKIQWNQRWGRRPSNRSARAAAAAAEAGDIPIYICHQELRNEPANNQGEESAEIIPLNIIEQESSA
Briefly: Calcitonin Receptor (CTR) cAMP Assay. The note with it: COS7-human CTR Clone #2 stable cell line, cAMP dynamic 2 kit, 30 min; read-out: Calcitonin Receptor cAMP Stimulation Activity: EC50. It is filed as cell-based. In a few lines: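 cAMP accumulation was measured by HTRF cAMP dynamic 2 read at 665/615 nm, 1 h at room temperature, with results scaled between vehicle and positive control. Before detection, COS7-human CTR stable cells were stimulated 30 min at 37 °C with compound (4-fold dilutions) in IBMX-containing HBSS/HEPES/casein buffer.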

The EC50 is the concentration at which the effect is half-maximal.

T1 sequence (O60896 24-148, one chain of several): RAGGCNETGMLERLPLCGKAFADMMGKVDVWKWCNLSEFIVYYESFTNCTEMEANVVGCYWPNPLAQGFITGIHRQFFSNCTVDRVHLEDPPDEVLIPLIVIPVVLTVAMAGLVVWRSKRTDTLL

With `COc1cccc2c1CC[C@H]2Nc1nccc2cc(-c3c4c(nc(CCC5CCOCC5)c3-c3cc(=O)[nH]o3)[C@@H]3CCCN3C4=O)sc12` [Compound 205, 5-((S)-4-(7-(((R)-4-methoxy-2,3-dihydro-1H-inden-1-yl)amino)thieno[2,3-c]pyridin-2-yl)-5-oxo-2-(2-(tetrahydro-2H-pyran-4-yl)ethyl)-7,8,9,9a-tetrahydro-5H-pyrido[2,3-a]pyrrolizin-3-yl)isoxazol-3(2H)-one], the results for the EC50 in assay [1] and in assay [2] were 0.342 µM and 0.0057 µM, respectively.

For `O=C1c2c(nc(CCC3CCOCC3)c(-c3cc(=O)[nH]o3)c2-c2cc3ccnc(NCc4ccc(F)c(F)c4)c3s2)[C@@H]2CCCN12` [Compound 206, (S)-5-(4-(7-((3,4-difluorobenzyl)amino)thieno[2,3-c]pyridin-2-yl)-5-oxo-2-(2-(tetrahydro-2H-pyran-4-yl)ethyl)-7,8,9,9a-tetrahydro-5H-pyrido[2,3-a]pyrrolizin-3-yl)isoxazol-3(2H)-one], the values for the EC50 in assay [1] and in assay [2] were 1.59 µM and 0.0261 µM, respectively.

`COc1cccc2c1CC[C@H]2Nc1nc(C)cc2cc(-c3c4c(nc(CCc5ccc(F)cc5)c3-c3n[nH]c(=O)o3)[C@@H]3CCCN3C4=O)sc12` [Compound 207, 5-((S)-2-(4-fluorophenethyl)-4-(7-(((R)-4-methoxy-2,3-dihydro-1H-inden-1-yl)amino)-5-methylthieno[2,3-c]pyridin-2-yl)-5-oxo-7,8,9,9a-tetrahydro-5H-pyrido[2,3-a]pyrrolizin-3-yl)-1,3,4-oxadiazol-2(3H)-one]: the EC50 in assay [1] worked out at 0.0113 µM; in assay [2] it was 0.000309 µM.

Regarding `O=C1c2c(nc(CCc3ccc(F)cc3)c(-c3n[nH]c(=O)o3)c2-c2ccc3c(c2)oc(=O)n3Cc2ncc(Cl)cc2F)[C@@H]2CCCN12` [Compound 208, (S)-3-((5-chloro-3-fluoropyridin-2-yl)methyl)-6-(2-(4-fluorophenethyl)-5-oxo-3-(5-oxo-4,5-dihydro-1,3,4-oxadiazol-2-yl)-7,8,9,9a-tetrahydro-5H-pyrido[2,3-a]pyrrolizin-4-yl)benzo[d]oxazol-2(3H)-one], the figures for the EC50 in assay [1] and in assay [2] were 0.0744 µM and 0.000331 µM, respectively.

Regarding `CC(c1ccc(C#N)c(F)c1)n1c(=O)oc2cc(-c3c4c(nc(CCc5ccc(F)cc5)c3-c3n[nH]c(=O)o3)[C@@H]3CCCN3C4=O)ccc21` (stereo partly drawn) [Compound 209, 2-fluoro-4-(1-(6-((S)-2-(4-fluorophenethyl)-5-oxo-3-(5-oxo-4,5-dihydro-1,3,4-oxadiazol-2-yl)-7,8,9,9a-tetrahydro-5H-pyrido[2,3-a]pyrrolizin-4-yl)-2-oxobenzo[d]oxazol-3(2H)-yl)ethyl)benzonitrile], the EC50 in assay [1] stood at 0.0172 µM; in assay [2] it was 0.000154 µM.

As for `O=C1c2c(nc(CCc3ccc(F)cc3)c(-c3n[nH]c(=O)o3)c2-c2cnc3c(ccn3Cc3ncc(F)cc3F)c2)[C@@H]2CCCN12` [Compound 210, (S)-5-(4-(1-((3,5-difluoropyridin-2-yl)methyl)-1H-pyrrolo[2,3-b]pyridin-5-yl)-2-(4-fluorophenethyl)-5-oxo-7,8,9,9a-tetrahydro-5H-pyrido[2,3-a]pyrrolizin-3-yl)-1,3,4-oxadiazol-2(3H)-one], the EC50 in assay [1] turned out to be 0.467 µM; in assay [2], 0.023 µM.

For the compound `O=C1c2c(nc(CCc3ccc(F)cc3)c(-c3n[nH]c(=O)o3)c2-c2cnc3c(ccn3Cc3ncc(Cl)cc3F)c2)[C@@H]2CCCN12` [Compound 211, (S)-5-(4-(1-((5-chloro-3-fluoropyridin-2-yl)methyl)-1H-pyrrolo[2,3-b]pyridin-5-yl)-2-(4-fluorophenethyl)-5-oxo-7,8,9,9a-tetrahydro-5H-pyrido[2,3-a]pyrrolizin-3-yl)-1,3,4-oxadiazol-2(3H)-one], the EC50 in assay [1] is 0.434 µM; in assay [2], 0.00385 µM.

As for `COc1cccc2c1CC[C@H]2Nc1nccc2cc(-c3c(-c4n[nH]c(=O)o4)c(CCc4ccc(F)cc4)nc4c3S(=O)(=O)CC4(C)C(C)C)sc12` (stereo partly drawn) [Compound 212, 5-(5-(4-fluorophenethyl)-3-isopropyl-7-(7-(((R)-4-methoxy-2,3-dihydro-1H-inden-1-yl)amino)thieno[2,3-c]pyridin-2-yl)-3-methyl-1,1-dioxido-2,3-dihydrothieno[3,2-b]pyridin-6-yl)-1,3,4-oxadiazol-2(3H)-one], the figures for the EC50 in assay [1] and in assay [2] were 11.7 µM and 0.526 µM, respectively.

Consider `N#Cc1ccc(Cn2c(=O)oc3cc(-c4c(-c5n[nH]c(=O)o5)c(CCc5ccc(F)cc5)nc5c4S(=O)(=O)N4CCC[C@@H]54)ccc32)nc1` [Compound 213, (S)-6-((6-(2-(4-fluorophenethyl)-5,5-dioxido-3-(5-oxo-4,5-dihydro-1,3,4-oxadiazol-2-yl)-7,8,9,9a-tetrahydropyrrolo[1′,2′:2,3]isothiazolo[4,5-b]pyridin-4-yl)-2-oxobenzo[d]oxazol-3(2H)-yl)methyl)nicotinonitrile], for which the results for the EC50 in assay [1] and in assay [2] were 0.0531 µM and 0.000786 µM, respectively.

Turning to `N#Cc1ccc(Cn2ccc3cc(-c4c5c(nc(CCc6ccc(F)cc6)c4-c4n[nH]c(=O)o4)C4CCCN4C5=O)cnc32)cc1F` (centres unmarked) [Compound 214, 2-fluoro-4-((5-(2-(4-fluorophenethyl)-5-oxo-3-(5-oxo-4,5-dihydro-1,3,4-oxadiazol-2-yl)-7,8,9,9a-tetrahydro-5H-pyrido[2,3-a]pyrrolizin-4-yl)-1H-pyrrolo[2,3-b]pyridin-1-yl)methyl)benzonitrile], the figures for the EC50 in assay [1] and in assay [2] were 0.129 µM and 0.00192 µM, respectively.

For `COc1cccc2c1CC[C@H]2Nc1nc(C(F)(F)F)cc2cc(-c3c4c(nc(CCc5ccc(F)cc5)c3-c3n[nH]c(=O)o3)[C@@H]3CCCN3C4=O)sc12` [Compound 215, 5-((S)-2-(4-fluorophenethyl)-4-(7-(((R)-4-methoxy-2,3-dihydro-1H-inden-1-yl)amino)-5-(trifluoromethyl)thieno[2,3-c]pyridin-2-yl)-5-oxo-7,8,9,9a-tetrahydro-5H-pyrido[2,3-a]pyrrolizin-3-yl)-1,3,4-oxadiazol-2(3H)-one], the figures for the EC50 in assay [1] and in assay [2] were 0.00723 µM and 0.000406 µM, respectively.

As to `COc1cccc2c1CC[C@H]2Nc1cc(C(F)(F)F)cn2cc(-c3c4c(nc(CCc5ccc(F)cc5)c3-c3n[nH]c(=O)o3)[C@@H]3CCCN3C4=O)nc12` [Compound 216, 5-((S)-2-(4-fluorophenethyl)-4-(8-(((R)-4-methoxy-2,3-dihydro-1H-inden-1-yl)amino)-6-(trifluoromethyl)imidazo[1,2-a]pyridin-2-yl)-5-oxo-7,8,9,9a-tetrahydro-5H-pyrido[2,3-a]pyrrolizin-3-yl)-1,3,4-oxadiazol-2(3H)-one], the EC50 in assay [1] came out at 1.34 µM; in assay [2], 0.152 µM.

For `COc1cccc2c1CC[C@H]2Nc1nccc2cc(-c3c4c(nc(C[C@H]5COc6cc(F)ccc65)c3-c3n[nH]c(=O)o3)[C@@H]3CCCN3C4=O)sc12` [Compound 217, 5-((S)-2-(((R)-6-fluoro-2,3-dihydrobenzofuran-3-yl)methyl)-4-(7-(((R)-4-methoxy-2,3-dihydro-1H-inden-1-yl)amino)thieno[2,3-c]pyridin-2-yl)-5-oxo-7,8,9,9a-tetrahydro-5H-pyrido[2,3-a]pyrrolizin-3-yl)-1,3,4-oxadiazol-2(3H)-one], the EC50 in assay [1] is 0.0478 µM; in assay [2], 0.000706 µM.

With `COc1cccc2c1CC[C@H]2Nc1nccc2cc(-c3c4c(nc(C[C@@H]5COc6cc(F)ccc65)c3-c3n[nH]c(=O)o3)[C@@H]3CCCN3C4=O)sc12` [Compound 218, 5-((S)-2-(((S)-6-fluoro-2,3-dihydrobenzofuran-3-yl)methyl)-4-(7-(((R)-4-methoxy-2,3-dihydro-1H-inden-1-yl)amino)thieno[2,3-c]pyridin-2-yl)-5-oxo-7,8,9,9a-tetrahydro-5H-pyrido[2,3-a]pyrrolizin-3-yl)-1,3,4-oxadiazol-2(3H)-one], the EC50 stood at 0.0893 µM in assay [1] and 0.0115 µM in assay [2].

As for `O=C1c2c(nc(CCc3ccc(F)cc3)c(-c3n[nH]c(=O)o3)c2-c2ccc3c(Cc4ccc(F)cc4F)nccc3c2)[C@@H]2CCCN12` [Compound 219, (S)-5-(4-(1-(2,4-difluorobenzyl)isoquinolin-6-yl)-2-(4-fluorophenethyl)-5-oxo-7,8,9,9a-tetrahydro-5H-pyrido[2,3-a]pyrrolizin-3-yl)-1,3,4-oxadiazol-2(3H)-one], the results for the EC50 in assay [1] and in assay [2] were 0.437 µM and 0.0274 µM, respectively.

As to `O=C1c2c(nc(CCc3ccc(F)cc3)c(-c3n[nH]c(=O)o3)c2-c2ccc3c(c2)CCCN3Cc2ccc(F)cc2F)[C@@H]2CCCN12` [Compound 220, (S)-5-(4-(1-(2,4-difluorobenzyl)-1,2,3,4-tetrahydroquinolin-6-yl)-2-(4-fluorophenethyl)-5-oxo-7,8,9,9a-tetrahydro-5H-pyrido[2,3-a]pyrrolizin-3-yl)-1,3,4-oxadiazol-2(3H)-one], the results for the EC50 in assay [1] and in assay [2] were 11.4 µM and 0.0205 µM, respectively.

(Values after patent US12486269B2 (Aconcagua Bio, Inc., priority 2024, dated 2025).)
